According to publication PMC11238290, “Anti-Staphy Peptides Rationally Designed from Cry10Aa Bacterial Protein” (ACS Omega, 2024):
Where a SMILES comes first, the peptide text is derived from it.

Legend:
serum proteases = test: Peptide stability in human serum by RP-HPLC; assay type: in vitro ADME; settings: human serum (male AB plasma, Sigma-Aldrich), serum:peptide 5:1 v/v, peptide 256 μM, 37 °C, RP-HPLC Venusil ASB C18, PDA 216 nm, mean ± SD of three replicates; for remaining at 2 h, 256 μM: read-out: relative peak area (%), peptide remaining in human serum, 2 h; for remaining at 4 h, 256 μM: read-out: relative peak area (%), peptide remaining in human serum, 4 h; for remaining at 6 h, 256 μM: read-out: relative peak area (%), peptide remaining in human serum, 6 h; for remaining at 12 h, 256 μM: read-out: relative peak area (%), peptide remaining in human serum, 12 h
Procedure: (§1) The stability of peptides AMPCry10Aa, AMPCry10Aa_1, and AMPCry10Aa_5, against serum proteases was evaluated as previously described.[86],[87] Aliquots of filtered human serum from male AB plasma from Sigma-Aldrich were mixed with each peptide to a final concentration of 256 μM in a 5:1 v/v ratio. Each aliquot was then incubated at 37 °C, and 200 μL was collected for analysis of peptide degradation at 0, 2, 4, 6, 12, and 24 h. The samples were analyzed by reversed-phase high-performance liquid chromatography (RP-HPLC) with a Shimadzu LC system (Kyoto, Japan) using LC Solution software. A gradient method and a Venusil ASB C18 column (250 mm × 4.6 mm, 5 μm, Bonna-Agela Technologies) with an injection volume of 15 μL were used. A segmented gradient was applied with a constant flow rate of 1.0 mL min^–1 and PDA detection at 216 nm using water and acetonitrile eluents as the mobile phase. The peptide amount was quantified by subtracting the relative area of each analyzed time peak from the initial control peak area. All assays were performed in triplicate.

[1] = Peptide stability in human serum by RP-HPLC; assay type: in vitro ADME; settings: human serum (male AB plasma, Sigma-Aldrich), serum:peptide 5:1 v/v, peptide 256 μM, 37 °C, RP-HPLC Venusil ASB C18, PDA 216 nm; for relative peak area (%), peptide remaining in human serum, 6 h: 360 min; for peptide remaining in human serum, 24 h: triplicate
Procedure: as §1

[2] = Solubility observed in the aqueous EPR treatment solution; assay type: physicochemical; settings: 100 μg of peptide in 50 μL of PBS (EPR treatment); observation
Excerpt: The EPR spectra (Figure 8A) indicate that the spin probe was structured in very rigid membranes, presenting 2A∥ values of ∼62 to ∼63 G, much higher than those found for the Leishmania parasite (∼54 G).[73]−[76] […] Pronounced increases in lipid fluidity generally create disorder in the lipid chains packaging, especially at lipid–protein interfaces, where they increase the likelihood of pore formation that could lead to electrolyte leakage and permeation of small molecules.[77]
Peptides' immediate effects on bacteria’s outermost membrane fluidity were analyzed by EPR spectroscopy. The bacteria in culture (1 × 10^9 CFU) were centrifuged and resuspended in 50 μL of PBS containing 100 μg of peptide. After 20 min of incubation, the sample was spin-labeled for the EPR experiment. To incorporate the spin label into the bacterial membranes, a 5 mg·mL^–1 ethanolic solution containing the spin label 5-doxyl stearic acid (5-DSA, Sigma-Aldrich, St. Louis, MO, USA) was added to each sample. Immediately after spin labeling, the sample was transferred to a 1 mm i.d. capillary tube, which was flame-sealed on one side. The capillary was centrifuged at 25,000 × g for 5 min, and the cell pellet of approximately 2 mm was placed in the center of the resonance cavity. […]

Structure (SMILES) | remaining at 2 h, 256 μM (serum proteases) | remaining at 4 h, 256 μM (serum proteases) | remaining at 6 h, 256 μM (serum proteases) | relative peak area (%), peptide remaining in human serum, 0 h ([1]; mean ± SD of three replicates) | relative peak area (%), peptide remaining in human serum, 2 h ([1]; 2 h, mean ± SD of three replicates) | relative peak area (%), peptide remaining in human serum, 12 h ([1]; mean ± SD of three replicates) | solubility in the aqueous treatment solution [2] | remaining at 12 h, 256 μM (serum proteases) | relative peak area (%), peptide remaining in human serum, 6 h ([1]; mean ± SD of three replicates) | peptide remaining in human serum, 24 h [1]
CC[C@H](C)[C@H](N)C(=O)N[C@H](C(=O)N[C@@H](CC(N)=O)C(=O)N[C@H](C(=O)N[C@@H](CC(C)C)C(=O)N[C@H](C(=O)N[C@@H](CO)C(=O)N[C@H](C(=O)N[C@H](C(=O)N[C@H](C(=O)N1CCC[C@H]1C(=O)N[C@H](C(=O)N[C@@H](CCCCN)C(=O)N[C@@H](CC(N)=O)C(=O)N[C@@H](CCC(N)=O)C(=O)N[C@@H](CC(C)C)C(=O)N[C@@H](CC(=O)O)C(=O)N[C@@H](CCCCN)C(=O)N[C@@H](Cc1ccc(O)cc1)C(=O)N[C@@H](CCC(N)=O)C(N)=O)[C@@H](C)CC)[C@@H](C)O)C(C)C)[C@@H](C)CC)[C@@H](C)O)C(C)C)[C@@H](C)CC [AMPCry10Aa] (H-IINVLTSIVTPIKNQLDKYQ-NH2) | 39.6 ± 2.44% | 18.6 ± 2.76% | ~0% | 92.2 ± 3.23% | about 40% | no longer detectable | did not dissolve | – | – | –
CC[C@H](C)[C@H](NC(=O)[C@H](C)NC(=O)[C@@H](NC(=O)[C@@H](NC(=O)[C@@H](NC(=O)[C@@H](NC(=O)[C@@H](NC(=O)[C@H](CCCCN)NC(=O)[C@H](CC(C)C)NC(=O)[C@H](CC(N)=O)NC(=O)[C@H](CC(=O)O)NC(=O)[C@@H](N)CCCCN)[C@@H](C)O)[C@@H](C)CC)[C@@H](C)CC)C(C)C)[C@@H](C)O)C(=O)N[C@@H](CCCCN)C(=O)N[C@@H](CC(N)=O)C(=O)N[C@H](C(=O)N[C@@H](CC(C)C)C(=O)N[C@@H](CC(=O)O)C(=O)N[C@@H](CCCCN)C(=O)N[C@@H](Cc1ccc(O)cc1)C(=O)N[C@@H](CCC(N)=O)C(N)=O)[C@@H](C)CC [AMPCry10Aa_1] (H-KDNLKTIIVTAIKNILDKYQ-NH2) | 81.8 ± 1.54% | 74.7 ± 1.98% | 60% | 96.93 ± 0.51% | – | trace | – | 4.37 ± 1.32% | 58.96 ± 2.33% | no longer detectable
CC[C@H](C)[C@H](N)C(=O)N[C@H](C(=O)N[C@@H](CC(N)=O)C(=O)N[C@H](C(=O)N[C@@H](CCCCN)C(=O)N[C@H](C(=O)N[C@@H](CO)C(=O)N[C@@H](CC(C)C)C(=O)N[C@@H](CCCCN)C(=O)N[C@H](C(=O)N[C@H](C(=O)N[C@H](C(=O)N[C@@H](CCCCN)C(=O)N[C@@H](CC(N)=O)C(=O)N[C@@H](C)C(=O)N[C@@H](CC(C)C)C(=O)N[C@@H](CC(=O)O)C(=O)N[C@@H](CCCCN)C(=O)N[C@H](C(=O)N[C@@H](CCC(N)=O)C(N)=O)[C@@H](C)CC)[C@@H](C)CC)[C@@H](C)CC)[C@@H](C)O)[C@@H](C)O)C(C)C)[C@@H](C)CC [AMPCry10Aa_5] (H-IINVKTSLKTIIKNALDKIQ-NH2) | 81.6 ± 2.21% | 68.8 ± 0.99% | 40% | 92.83 ± 3.33% | – | trace | – | 8.11 ± 3.65% | 36.73 ± 1.84% | no longer detectable
